Assay results as given in patent US20250136606A1, “MODULATORS OF TRPML, THEIR COMPOSITIONS AND METHODS OF USE” (Caraway Therapeutics, Inc., priority 2021, published 2025).
Read-outs that look alike come from different tables or passages of the source.

Key:
Assay type in all cases: cell-based
TRPML3 = target: T1, TRPML3 (Homo sapiens, UniProt Q8TDD5); assay: Fluorescent TRPML3 assay (performed as for TRPML1, substituting the TRPML3 subtype)
T1 construct: expressed in transfected cells
T1 sequence (Q8TDD5 1-553): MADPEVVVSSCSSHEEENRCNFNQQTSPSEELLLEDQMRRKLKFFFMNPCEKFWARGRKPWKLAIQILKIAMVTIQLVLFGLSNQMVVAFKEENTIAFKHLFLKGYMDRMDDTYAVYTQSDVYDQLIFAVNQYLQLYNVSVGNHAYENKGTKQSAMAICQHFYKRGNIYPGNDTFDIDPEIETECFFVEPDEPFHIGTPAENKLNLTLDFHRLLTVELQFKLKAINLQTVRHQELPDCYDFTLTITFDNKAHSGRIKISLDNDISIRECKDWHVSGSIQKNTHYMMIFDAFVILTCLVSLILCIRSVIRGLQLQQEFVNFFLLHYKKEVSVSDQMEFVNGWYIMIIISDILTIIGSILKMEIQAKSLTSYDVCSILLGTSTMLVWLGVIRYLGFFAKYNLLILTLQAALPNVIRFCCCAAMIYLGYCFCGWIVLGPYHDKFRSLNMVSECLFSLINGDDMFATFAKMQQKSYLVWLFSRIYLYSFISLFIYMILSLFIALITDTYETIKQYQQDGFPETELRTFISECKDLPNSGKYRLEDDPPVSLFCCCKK
Method in brief: (§1)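 Agonist activity is scored as percent of plate controls from Fluo4 fluorescence after dye-loaded, doxycycline-induced HEK-293 Trex cells meet compound in high-calcium (10 mM) Ringer's. Compounds run in half-log dilutions from 20 micromolar final, in triplicate.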

TRPML1 = TRPML1 (Homo sapiens, UniProt Q9GZU1); assay: Fluorescent TRPML1 assay (Fluo4-AM calcium fluorescence in doxycycline-induced HEK-293 Trex cells)
TRPML1, sequence (Q9GZU1 whole entry L15A/L16A/L577A/L578A, form open): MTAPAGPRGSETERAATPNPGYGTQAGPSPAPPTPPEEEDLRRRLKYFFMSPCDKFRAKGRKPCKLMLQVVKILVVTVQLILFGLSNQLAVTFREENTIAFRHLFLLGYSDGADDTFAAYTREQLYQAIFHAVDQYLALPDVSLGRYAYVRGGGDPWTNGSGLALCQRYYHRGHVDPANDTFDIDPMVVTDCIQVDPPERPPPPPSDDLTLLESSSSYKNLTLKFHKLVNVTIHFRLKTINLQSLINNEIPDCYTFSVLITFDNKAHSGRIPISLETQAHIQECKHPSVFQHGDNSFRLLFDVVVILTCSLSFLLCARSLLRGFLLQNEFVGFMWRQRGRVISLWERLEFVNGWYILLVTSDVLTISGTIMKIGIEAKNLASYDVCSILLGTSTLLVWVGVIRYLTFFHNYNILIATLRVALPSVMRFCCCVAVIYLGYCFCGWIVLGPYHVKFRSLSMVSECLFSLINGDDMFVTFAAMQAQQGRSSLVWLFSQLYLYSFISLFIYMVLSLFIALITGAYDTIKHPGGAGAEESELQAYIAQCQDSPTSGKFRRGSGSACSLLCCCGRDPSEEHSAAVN
Method in brief: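 HEK-293 Trex cells stably expressing surface-directed mutant human TRPML1, induced with 0.5 µg/mL doxycycline overnight, were loaded with 1 µM Fluo4-AM and added to compound (6 nM–20 µM final, half-log steps, triplicate) in Ringer's with 10 mM calcium. Fluorescence ex 480/em 540; EC50 by non-linear regression versus plate controls.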

TRPML2 = target: T2, TRPML2 (Homo sapiens, UniProt Q8IZK6); assay: Fluorescent TRPML2 assay (performed as for TRPML1, substituting the TRPML2 subtype)
T2 construct: expressed in transfected cells
T2 sequence (Q8IZK6 1-566): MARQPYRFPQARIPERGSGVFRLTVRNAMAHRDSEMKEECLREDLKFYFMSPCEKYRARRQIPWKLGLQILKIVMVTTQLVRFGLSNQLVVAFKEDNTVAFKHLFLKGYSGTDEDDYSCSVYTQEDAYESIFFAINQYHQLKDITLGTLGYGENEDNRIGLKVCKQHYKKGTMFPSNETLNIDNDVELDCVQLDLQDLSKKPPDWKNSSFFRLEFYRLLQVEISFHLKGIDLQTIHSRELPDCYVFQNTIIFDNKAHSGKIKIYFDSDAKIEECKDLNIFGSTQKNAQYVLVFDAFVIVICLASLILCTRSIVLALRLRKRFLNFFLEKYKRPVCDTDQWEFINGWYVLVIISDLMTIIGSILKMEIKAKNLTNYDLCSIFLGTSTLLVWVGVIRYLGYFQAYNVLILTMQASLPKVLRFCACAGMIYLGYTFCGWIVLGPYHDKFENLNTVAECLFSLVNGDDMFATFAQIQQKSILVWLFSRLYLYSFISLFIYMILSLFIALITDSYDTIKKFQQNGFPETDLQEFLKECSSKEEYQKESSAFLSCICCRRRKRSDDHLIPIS
Method in brief: as §1

Row | SMILES | EC50 (TRPML3) [nM] | EC50 (TRPML1) [nM] | EC50 (TRPML2) [nM] | EC50 (TRPML3; fluorescent calcium assay) [nM] | EC50 (TRPML1; fluorescent calcium assay) [nM] | EC50 (TRPML2; fluorescent calcium assay) [nM]
1 | C[C@@H]1CN(c2ncnc3c2c(C2CC2)cn3-c2cc(F)cc(Cl)c2)CCN1C(=O)OC(C)(C)C [Compound 123, tert-butyl (R)-4-(7-(3-chloro-5-fluorophenyl)-5-cyclopropyl-7H-pyrrolo[2,3-d]pyrimidin-4-yl)-2-methylpiperazine-1-carboxylate] | – | – | – | < 100 | < 100 | 100 to 500
2 | C[C@H]1CN(C(=O)OC(C)(C)C)CCN1c1ncnc2c1c(N1CCC1)cn2-c1cc(C#N)ccn1 [Compound 407, tert-butyl (S)-4-(5-(azetidin-1-yl)-7-(4-cyanopyridin-2-yl)-7H-pyrrolo[2,3-d]pyrimidin-4-yl)-3-methylpiperazine-1-carboxylate] | – | – | – | < 100 | < 100 | < 100
3 | C[C@@H]1CN(c2ncnc3c2c(N2CCC[C@H]2C)cn3-c2cccc(Cl)c2)CCN1C(=O)OC(C)(C)C [Compound 299, tert-butyl (R)-4-(7-(3-chlorophenyl)-5-((R)-2-methylpyrrolidin-1-yl)-7H-pyrrolo[2,3-d]pyrimidin-4-yl)-2-methylpiperazine-1-carboxylate] | – | – | – | 500 to 2000 | 500 to 2000 | > 2000
4 | C[C@@H]1CN(c2ncnc3c2c(C2CC2)cn3-c2cc(Cl)cc(Cl)c2)CCN1C(=O)OC(C)(C)C [Compound 111, tert-butyl (R)-4-(5-cyclopropyl-7-(3,5-dichlorophenyl)-7H-pyrrolo[2,3-d]pyrimidin-4-yl)-2-methylpiperazine-1-carboxylate] | – | – | – | < 100 | < 100 | 100 to 500
5 | Cc1cncc(-n2cc(C3CC3)c3c(N4CCN(C(=O)OC(C)(C)C)CC4)ncnc32)c1 [Compound 149, tert-butyl 4-(5-cyclopropyl-7-(5-methylpyridin-3-yl)-7H-pyrrolo[2,3-d]pyrimidin-4-yl)piperazine-1-carboxylate] | – | – | – | 100 to 500 | 100 to 500 | 500 to 2000

Results, then the compound that gave them:

Row | EC50 (TRPML3) [nM] | EC50 (TRPML1) [nM] | EC50 (TRPML2) [nM] | EC50 (TRPML3; fluorescent calcium assay) [nM] | EC50 (TRPML1; fluorescent calcium assay) [nM] | EC50 (TRPML2; fluorescent calcium assay) [nM] | SMILES
6 | 500 to 2000 | 500 to 2000 | 500 to 2000 | – | – | – | CC(C)(C)OC(=O)N1CCN(c2ncnc3c2c(C(F)(F)F)cn3-c2cc(C#N)ccn2)CC1 [Compound 708, tert-butyl 4-(7-(4-cyanopyridin-2-yl)-5-(trifluoromethyl)-7H-pyrrolo[2,3-d]pyrimidin-4-yl)piperazine-1-carboxylate]
7 | < 100 | < 100 | 100 to 500 | – | – | – | C[C@@H]1CN(c2ncnc3c2c(C2CCC2)cn3-c2cc(C#N)ccn2)[C@@H](C)CN1C(=O)OC(C)(C)C [Compound 710, tert-butyl (2R,5S)-4-(7-(4-cyanopyridin-2-yl)-5-cyclobutyl-7H-pyrrolo[2,3-d]pyrimidin-4-yl)-2,5-dimethylpiperazine-1-carboxylate]
8 | < 100 | < 100 | < 100 | – | – | – | C[C@@H]1CN(c2ncnc3c2c(C(F)(F)F)cn3-c2cc(C#N)ccn2)[C@@H](C)CN1C(=O)OC1(C)CCC1 [Compound 535, 1-methylcyclobutyl (2R,5S)-4-(7-(4-cyanopyridin-2-yl)-5-(trifluoromethyl)-7H-pyrrolo[2,3-d]pyrimidin-4-yl)-2,5-dimethylpiperazine-1-carboxylate]
9 | < 100 | < 100 | 500 to 2000 | – | – | – | Cc1ccnc(-n2cc(C(F)(F)F)c3c(N4C[C@@H](C)N(C(=O)OC(C)(C)C)C[C@@H]4C)ncnc32)c1 [Compound 665, tert-butyl (2R,5S)-2,5-dimethyl-4-(7-(4-methylpyridin-2-yl)-5-(trifluoromethyl)-7H-pyrrolo[2,3-d]pyrimidin-4-yl)piperazine-1-carboxylate]
10 | – | – | – | < 100 | < 100 | 100 to 500 | C[C@@H]1CN(c2ncnc3c2c(C(F)(F)F)cn3-c2cc(F)cc(F)c2)[C@@H](C)CN1C(=O)OC(C)(C)C [Compound 492]
